# Patent US20090203775A1, “Novel compound and a novel microorganism for producing the novel compound” (Haiyi Biotech Pte, Ltd., priority 2005, published 2009)
# Like-named read-outs stand apart in the source and are kept apart here.
# Key:
# B. subtilis = experiment: Germicidal effect, MTT assay, B. subtilis; format: cell-based
# Experimental: (§1) Aims: To observe the germicidal effect of the compound of formula (I) on T. rubrum, T. mentagrophytes, C. albicans and B. subtilis. Method: […] Concentration of the samples were: (1) 2 mg/ml; (2) 1 mg/ml; (3) 0.5 mg/ml; (4) 0.25 mg/ml; Volume of the sample: 50 ul/well.
# Coxsakie B3 virus = experiment: in vitro; format: cell-based; conditions: for IC50: read-out: IC50 (half inhibitory concentration for the virus)
# Experimental: Treatment of the sample: The sample was first dissolved in DMSO to appropriate concentration. The sample solutions were then diluted the samples in culture medium solution to obtain eight concentrations.
# (§2) Methods: The Veo cells were cultured in 96-well plates. The cells were infected with Coxsakie B3 virus for 2 hours after 24 hours of incubation. The solution containing the virus was then discarded. The samples were then added into the wells at the concentrations with the appropriate controls. The cell pathological extent (CPE) was observed 36 hours later. The half inhibitory concentration (IC50) was calculated by using the method of Reed-Muench.
# (§3) (1) “-” means that the sample has no anti Coxsakie B3 virus effect at the maximal dose with no toxicity. (2) TC50 indicates the half toxic concentration; IC50 indicates the half inhibitory concentration for the virus; SI indicates the selective index, calculated as the follow: SI=TC50/IC50
# C. albicans = experiment: Germicidal effect, MTT assay, C. albicans; format: cell-based
# Experimental: as §1
# [1] = test system: T. rubrum, T. mentagrophytes, C. albicans and B. subtilis; experiment: Germicidal effect, MTT assay, summary statement for all strains; format: cell-based; conditions: ≧50 μg/well; summary for the strains of Table 8
# Experimental: as §1
# T. mentagrophytes = experiment: Germicidal effect, MTT assay, T. mentagrophytes; format: cell-based
# Experimental: as §1
# [2] = test system: L1210 (mouse lymph leukemia cells); experiment: Survival of mice transplanted with L1210; format: in vivo, BDF-1 mice; conditions: d 1, d 6, s.c.; for duration of survival (Ave): control 15
# Experimental: Aims: To observe the effect of prolonging the survival of the compound of formula (I) on mice transplanted with L1210, a kind of mouse lymph leukemia cells.
# Methods: 18 BDF-1 mice, male. L1210 (mouse lymph leukemia cells) were administered by i.p. injection, at the dose of 1×10^5 per mouse. Mice were divided into three groups randomly, with six animals per group. The test group was administered with the drug on day 1 and day 6 by subcutaneous (s.c.) injection. An equal volume of saline was administered in control animals.
# Dosage: Test group 1: 50 mg/kg the lyophilized powder injection of the compound of formula (I) was administered by s.c. injection, • Test group 2: 25 mg/kg the lyophilized powder injection of the compound of formula (I) was administered by s.c. injection, • Test group 3: 12.5 mg/kg the lyophilized powder injection of the compound of formula (I) was administered by s.c. injection.
# [3] = test system: A2780 (human ovary cancer cells); experiment: MTT assay, percentage of killing, A2780; format: cell-based; conditions: 24~48 hours
# Experimental: (§4) 1. Method: 3-[4,5-dimethyl(thiazol-2-yl)-3,5-diphery] tetradium bromide (MTT) assay. 2. Culture medium: RPMI-1640 medium containing 2% calf serum 3. Apparatus: (1) CO2 incubator, Sherton USA; (2) 318MC Enzyme analysis machine, SANCO Equipments Company Ltd. 4. Conditions of the culture: Temp. 37° C.; Concentration of CO2: 4.7%, culture duration: 24˜48 hours.
# [4] = test system: L1210 (mouse leukemia cells); experiment: MTT assay, percentage of killing, L1210; format: cell-based; conditions: 24~48 hours
# Experimental: as §4
# Veo cells = experiment: Half toxic concentration in the antiviral test cells; format: cell-based
# Experimental: as §2, §3
# [5] = test system: Eca-109 (esophageal cancer cells); experiment: MTT assay, percentage of killing, Eca-109; format: cell-based; conditions: for percentage of killing: MTT, 24~48 hours
# Experimental: as §4
# [6] = test system: human stomach cancer cells MGC-803; experiment: Nude mouse transplanted with human stomach cancer MGC-803, tumor growth inhibition; format: in vivo, BALB/cA nude mice
# Experimental: Aim: To observe the growth inhibitory effect and the intensity of the effect of the compound of formula (I) in nude mouse transplanted with human stomach cancer cells MGC803.
# Material: The lyophilized injection powder of the compound of formula (I), 15 mg/vial, diluted to the needed concentration by 0.9% saline before use.
# Dosages: the dosages of the compound of formula (I) are 15, 10 and 5 mg/kg.
# Animals: BALB/cA nude mice, female, 40˜45-days old, body weight is 18±2 g. The number of the animals in per group: negative control: 12; group with drug: 6.
# Transplanted tumor: Human stomach cancer MGC-803 cells were transplanted into the nude mice as follows. Approximately half a million […] of the MGC-803 cells was injected subcutaneously (s.c.) into the mice. The tumors were used after breeding the mice for three generations.
# Methods: Tumors in peak growth were cut into the sizes of around 1.5 mm^3. Under aseptic conditions the tumours were injected subcutaneously to the right axilla of the mouse. The size of the transplanted tumor is then measure and the animals randomly divided into several groups when the size of the tumor reaches 100-200 mm^3. The drug is administered by intravenous (i.v.) injection on the 1st and 6th days. Saline is administered as control. The size of the tumor is examined every two weeks together with the weight of the mouse. The tumor volume(TV) is calculated as:
# Where, a and b represent length and width, respectively. The relative tumor volume (RTV) is calculated as: RTV=Vt/V0, where V0 is the volume of the tumor before administering the compound, Vt is the volume of the tumor after administering the compound. The index for evaluating the activity of anticancer is the relative growth rate of tumor (T/C), which is calculated as: […]
# wherein, TRTV is the administering group; CRTV is the control group.
# The standard for evaluating the treatment effect: T/C (%)>60% means no effect, T/C<=60% and p<0.05 means having a significant effect.
# [7] = test system: MGC (human stomach cancer cells); experiment: MTT assay, percentage of killing, MGC; format: cell-based; conditions: 24~48 hours
# Experimental: as §4
# [8] = test system: B16 (mouse melanocytoma cells); experiment: MTT assay, percentage of killing, B16; format: cell-based; conditions: 24~48 hours
# Experimental: as §4
# T. rubrum = experiment: Germicidal effect, MTT assay, T. rubrum; format: cell-based
# Experimental: as §1
# [9] = test system: L1210, a kind of lymph leukemia cell; experiment: Ex vivo treatment of L1210 cells, then i.p. injection into mice; format: in vivo, BDF-1 mice
# Experimental: Control: 6 BDF-1 mice, male, administer to each mouse 1×10^8 L1210, a kind of lymph leukemia cell, by intraperitoneal (i.p.) injection, (without the compound of formula (I) treatment); results are shown in FIG. 11.
# Ex vivo test group: 6 BDF-1 mice, male, administer to each mouse 1×10^8 L1210 cells by i.p. injection, wherein the L1210 were treated with the compound of formula (I). The method of treating cells ex vivo: The concentration of the lyophilized powder injection of the compound of formula (I) is 7.5 mg/ml. It was diluted to 150 ug/ml with saline solution. A volume of 67 ul of the diluted injection solution is mixed with 1.5 ml L1210 cells and 0.433 ml saline to obtain in each […] of L1210 cells to contain 5 ug the compound. The mixture is placed at the room temperature for two hours.
smiles,measurement,setting,value
O=C1CC[C@H](c2ccc(O)c3c2C(=O)C2OC2[C@H]3O)c2cccc(O)c21 (stereo partly shown) [compound of formula (I)],Gemicidal effect (killing rate),B. subtilis; 12.5 μg/ml,65%
same,Gemicidal effect (killing rate),B. subtilis; 25 μg/ml,85%
same,Gemicidal effect (killing rate),B. subtilis; 50 μg/ml,99%
same,Gemicidal effect (killing rate),B. subtilis; 100 μg/ml,100%
same,selectivity ratio at 36 h,"Coxsakie B3 virus; African green monkey, Veo cells infected with Coxsakie B3 virus, Coxsakie B3 virus in Veo cells, read-out: SI (selective index, TC50/IC50)",2.88
same,IC50,"Coxsakie B3 virus; Coxsakie B3 virus in Veo cells, CPE after 36 hours, Reed-Muench",8.56 µg/mL
same,Gemicidal effect (killing rate),C. albicans; 12.5 μg/ml,50%
same,Gemicidal effect (killing rate),C. albicans; 25 μg/ml,75%
same,Gemicidal effect (killing rate),C. albicans; 50 μg/ml,99%
same,Gemicidal effect (killing rate),C. albicans; 100 μg/ml,99.5%
same,antifungal effects,[1],99.9%
same,Gemicidal effect (killing rate),T. mentagrophytes; 12.5 μg/ml,60%
same,Gemicidal effect (killing rate),T. mentagrophytes; 25 μg/ml,82%
same,Gemicidal effect (killing rate),T. mentagrophytes; 50 μg/ml,99.5%
same,Gemicidal effect (killing rate),T. mentagrophytes; 100 μg/ml,100%
same,prolonging days,[2]; 12.5 mg/kg,5 days
same,rate of prolonging (%),[2]; 12.5 mg/kg,33%
same,duration of survival (Ave),[2]; 12.5 mg/kg,20
same,prolonging days,[2]; 25 mg/kg,7 days
same,rate of prolonging (%),[2]; 25 mg/kg,47%
same,duration of survival (Ave),[2]; 25 mg/kg,22
same,prolonging days,[2]; 50 mg/kg,13 days
same,rate of prolonging (%),[2]; 50 mg/kg,87%
same,duration of survival (Ave),[2]; 50 mg/kg,28
same,percentage of killing,"[3]; A2780, 312.5 ng/ml",0%
same,percentage of killing,"[3]; A2780, 625 ng/ml",35.31%
same,percentage of killing,"[3]; A2780, 1.25 ug/ml",46.5%
same,percentage of killing,"[3]; A2780, 2.5 ug/ml",73.08%
same,percentage of killing,"[3]; A2780, 5 ug/ml",90.91%
same,percentage of killing,"[4]; L1210, 312.5 ng/ml",0%
same,percentage of killing,"[4]; L1210, 625 ng/ml",0%
same,percentage of killing,"[4]; L1210, 1.25 ug/ml",17.02%
same,percentage of killing,"[4]; L1210, 2.5 ug/ml",94.18%
same,percentage of killing,"[4]; L1210, 5 ug/ml",97.00%
same,TC50 (half toxic concentration),Veo cells,24.7 µg/mL
same,percentage of killing,"[5]; Eca-109, 312.5 ng/ml",0%
same,percentage of killing,"[5]; Eca-109, 625 ng/ml",0%
same,percentage of killing,"[5]; Eca-109, 1.25 ug/ml",0%
same,percentage of killing,"[5]; Eca-109, 2.5 ug/ml",0%
same,percentage of killing,"[5]; Eca-109, 5 ug/ml",0.18%
same,effect on Eca-109 (in words),"[5]; Eca-109, MTT",no effect
same,growth inhibitory effect (in words),"[6]; 15 mg/kg on day 1 and day 6, i.v., T/C<=60% and p<0.05 means significant effect",significant growth inhibitory effect
same,weight(g) final,"[6]; 15 mg/kg, d 1, d 6, i.v., lyophilized powder, body weight of mice, final",17.2 g
same,weight(g) Initial,"[6]; 15 mg/kg, d 1, d 6, i.v., lyophilized powder, body weight of mice, initial",18.3 g
same,T/C (%),"[6]; 15 mg/kg, d 1, d 6, i.v., relative growth rate of tumor, TRTV/CRTV x 100",0.18%
same,RTV,"[6]; 15 mg/kg, d 1, d 6, i.v., relative tumor volume Vt/V0",0.02 ± 4.3
same,complete disappearance of tumor,"[6]; 15 mg/kg, d 1, d 6, i.v., three weeks after the treatment, 6 mice",the tumor in one mouse disappeared completely
same,TV(mm^3) d 0,"[6]; 15 mg/kg, d 1, d 6, i.v., tumor volume before treatment",102 ± 22 mm^3
same,TV(mm^3) d 21,"[6]; 15 mg/kg, d 1, d 6, i.v., tumor volume d 21",2.2 ± 0.04 mm^3
same,percentage of killing,[7]; 312.5 ng/ml,0%
same,percentage of killing,[7]; 625 ng/ml,40.98%
same,percentage of killing,[7]; 1.25 ug/ml,42.32%
same,percentage of killing,[7]; 2.5 ug/ml,64.37%
same,percentage of killing,[7]; 5 ug/ml,85.52%
same,percentage of killing,"[8]; B16, 312.5 ng/ml",1.06%
same,percentage of killing,"[8]; B16, 625 ng/ml",6.37%
same,percentage of killing,"[8]; B16, 1.25 ug/ml",0%
same,percentage of killing,"[8]; B16, 2.5 ug/ml",51.75%
same,percentage of killing,"[8]; B16, 5 ug/ml",72.53%
same,Gemicidal effect (killing rate),T. rubrum; 12.5 μg/ml,58%
same,Gemicidal effect (killing rate),T. rubrum; 25 μg/ml,80%
same,Gemicidal effect (killing rate),T. rubrum; 50 μg/ml,99%
same,Gemicidal effect (killing rate),T. rubrum; 100 μg/ml,100%
same,duration of survival,"[9]; 6 BDF-1 mice given 1×10^8 L1210 cells i.p., cells treated ex vivo with 5 ug compound, two hours, room temperature, controls died at 12-15 days",after 60 days
same,others (symptoms),[9]; 6 BDF-1 mice given compound-treated L1210 cells i.p.,no symptom
same,killing of L1210 ex vivo (in words),"[9]; L1210 treated ex vivo with 5 ug compound, two hours, room temperature",killed completely
"NC(=O)c1ncn([C@@H]2O[C@H](CO)[C@@H](O)[C@H]2O)n1 [RBV, Ribavirin, reference compound]",IC50,Coxsakie B3 virus; 36 h,448 µg/mL
